Like-named read-outs stand apart in the source and are kept apart here.
Columns and labels:
[1] = molecular target: T1, NET (norepinephrine transporter) (Rattus norvegicus, UniProt Q63380); assay: NET assay, [3H]nisoxetine binding, rat frontoparietal cerebral cortex membranes
T1 construct: or frontoparietal cerebral cortex (for 5-HTT and NET); from tissue; host or cells: rat brain frontoparietal cerebral cortex, crude membrane fraction
Procedure: (§1) N-phthalimidopropyl-β-CIT (see Example 10) was analyzed as follows. Stock solutions (1 mM) of test agents were made in 95% ethanol/DMSO (1/1, v/v) and stored at −5° C. until used by diluting in a large excess of each assay buffer. Agents are tested at six concentrations in duplicate, with a crude membrane fraction of homogenates of rat brain corpus striatum (for DAT assays) in Tris-citrate buffer (pH 7.4) containing Na^+ ([…]) and Mg^2+ (4 mM) or frontoparietal cerebral cortex (for 5-HTT and NET) in 50 mM Tris-HCl buffer (pH 7.4) containing Na^+ ([…]) and K^+ (5 mM) following methods reported by Neumeyer et al., J. Med. Chem. 37, 1558-1561 (1991), the whole of which is incorporated by reference herein.

5-HTT (5-HT transporter) = molecular target: T2, 5-HTT (5-HT transporter) (Rattus norvegicus, UniProt P31652); assay: 5-HTT assay, [3H]paroxetine binding, rat frontoparietal cerebral cortex membranes
T2 construct: or frontoparietal cerebral cortex (for 5-HTT and NET); from tissue; host or cells: rat brain frontoparietal cerebral cortex, crude membrane fraction
T2 sequence (P31652 whole entry): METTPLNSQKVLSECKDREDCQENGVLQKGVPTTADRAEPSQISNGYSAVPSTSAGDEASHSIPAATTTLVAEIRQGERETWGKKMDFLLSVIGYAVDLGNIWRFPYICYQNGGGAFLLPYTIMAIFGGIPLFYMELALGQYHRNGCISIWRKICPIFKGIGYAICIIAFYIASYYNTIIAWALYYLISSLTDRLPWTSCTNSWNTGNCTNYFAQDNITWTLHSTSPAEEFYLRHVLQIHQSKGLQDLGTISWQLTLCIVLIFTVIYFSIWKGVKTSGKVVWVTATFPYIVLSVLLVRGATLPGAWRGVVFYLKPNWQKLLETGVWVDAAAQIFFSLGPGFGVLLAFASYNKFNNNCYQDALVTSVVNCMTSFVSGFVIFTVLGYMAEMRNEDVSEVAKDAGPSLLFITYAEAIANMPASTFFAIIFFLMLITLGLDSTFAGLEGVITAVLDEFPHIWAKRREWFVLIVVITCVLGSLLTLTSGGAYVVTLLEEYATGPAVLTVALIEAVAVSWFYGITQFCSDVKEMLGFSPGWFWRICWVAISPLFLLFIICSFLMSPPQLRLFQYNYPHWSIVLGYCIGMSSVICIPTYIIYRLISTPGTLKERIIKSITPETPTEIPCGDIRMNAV
Procedure: as §1

[2] = molecular target: T3, DAT (dopamine transporter) (Rattus norvegicus, UniProt P23977); assay: DAT assay, [3H]GBR-12935 binding, rat brain corpus striatum membranes; conditions: for selectivity: DAT vs 5-HTT / selectivity: DAT vs NET: ratio of Ki values
T3 construct: a crude membrane fraction of homogenates of rat brain corpus striatum (for DAT assays); from tissue; host or cells: rat brain corpus striatum, crude membrane fraction
T3 sequence (P23977 whole entry): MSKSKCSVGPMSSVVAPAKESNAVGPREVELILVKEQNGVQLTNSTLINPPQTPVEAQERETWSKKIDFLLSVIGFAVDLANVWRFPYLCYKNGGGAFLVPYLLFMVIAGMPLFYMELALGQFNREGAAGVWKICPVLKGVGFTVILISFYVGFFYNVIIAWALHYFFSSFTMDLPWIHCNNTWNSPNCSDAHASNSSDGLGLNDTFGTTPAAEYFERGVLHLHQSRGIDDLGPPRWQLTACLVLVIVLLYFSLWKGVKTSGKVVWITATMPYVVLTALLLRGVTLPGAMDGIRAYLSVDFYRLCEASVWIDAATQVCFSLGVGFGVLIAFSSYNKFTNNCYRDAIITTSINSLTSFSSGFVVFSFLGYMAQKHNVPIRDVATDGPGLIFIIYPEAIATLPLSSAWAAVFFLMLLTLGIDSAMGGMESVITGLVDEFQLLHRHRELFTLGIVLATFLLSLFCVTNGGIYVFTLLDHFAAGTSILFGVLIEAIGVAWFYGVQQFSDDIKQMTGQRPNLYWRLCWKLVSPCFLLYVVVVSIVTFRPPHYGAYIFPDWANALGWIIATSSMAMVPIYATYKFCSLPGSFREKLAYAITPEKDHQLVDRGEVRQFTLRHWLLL
Procedure: as §1

[3] = tested on: dopamine and serotonin reuptake sites; conditions: 3 μmol/kg IV at 200 min pi, during 100 min after injection
Procedure: With reference to FIG. 4, five SPECT (single photon emission computer tomography) experiments were performed with four female baboons (Papio anubis, 10-12 kg) under isoflurane anesthesia. […] Serial 1-2 min images were reconstructed assuming uniform attenuation equal to that of water in an ellipse drawn around the brain. Data were decay corrected to time of injection.
Activity is expressed in arbitrary units known from phantom studies to be linear with radioactive concentrations.

[4] = whole body scanning, thyroid uptake (in vivo deiodination); conditions: indicative of slow in vivo deiodination
Source text: The majority of striatal activity was associated with dopamine reuptake sites, and the majority of midbrain activity was associated with serotonin reuptake sites, which is consistent with the densities of these monoamine transporters measured in postmortem primate brains. Brain washout of activity was relatively slow, in part because of the high affinities of β-CIT for the monoamine transporters.

[5] = tested on: dopamine and serotonin reuptake sites; assay: SPECT regional brain activity after injection of [123I]-β-CIT (six experiments); format: in vivo, baboon (Papio anubis)
Procedure: The final product was formulated in 6 ml sterile saline containing 5-10% ethanol.
Data were decay-corrected to the time of injection.
The highest activities were found in the striatal region and reached peak levels at 179±9 min (n=6) post injection (p.i.) (FIG. 2). Striatal activity was monitored in two animals for an additional 190 and […] post peak values.

[6] = tested on: dopamine and serotonin reuptake sites; assay: SPECT regional brain activity after i.v. [123I]-β-CIT (five experiments); format: in vivo, baboon (Papio anubis)
Source text: Data were decay corrected to time of injection.

serotonin reuptake sites = molecular target: T4, serotonin reuptake sites (Rattus norvegicus, UniProt P31652); assay: displacement of [3H]paroxetine binding in rat cortical membrane homogenates; conditions: for displacement of [3H]paroxetine Hill slope (nH): mean ± SEM (n)
T4 construct: homogenates prepared from rat cortical membranes; from tissue; host or cells: rat cortical membranes
T4 sequence (P31652 whole entry): as the sequence (P31652 whole entry) above

dopamine reuptake sites = dopamine reuptake sites (Papio anubis, UniProt A0A096MN61); assay: displacement of [3H]CFT binding in primate striatum tissue homogenates; set-up: species or system baboon; conditions: mean ± SEM (n)
Chain of dopamine reuptake sites (A0A096MN61 1-620): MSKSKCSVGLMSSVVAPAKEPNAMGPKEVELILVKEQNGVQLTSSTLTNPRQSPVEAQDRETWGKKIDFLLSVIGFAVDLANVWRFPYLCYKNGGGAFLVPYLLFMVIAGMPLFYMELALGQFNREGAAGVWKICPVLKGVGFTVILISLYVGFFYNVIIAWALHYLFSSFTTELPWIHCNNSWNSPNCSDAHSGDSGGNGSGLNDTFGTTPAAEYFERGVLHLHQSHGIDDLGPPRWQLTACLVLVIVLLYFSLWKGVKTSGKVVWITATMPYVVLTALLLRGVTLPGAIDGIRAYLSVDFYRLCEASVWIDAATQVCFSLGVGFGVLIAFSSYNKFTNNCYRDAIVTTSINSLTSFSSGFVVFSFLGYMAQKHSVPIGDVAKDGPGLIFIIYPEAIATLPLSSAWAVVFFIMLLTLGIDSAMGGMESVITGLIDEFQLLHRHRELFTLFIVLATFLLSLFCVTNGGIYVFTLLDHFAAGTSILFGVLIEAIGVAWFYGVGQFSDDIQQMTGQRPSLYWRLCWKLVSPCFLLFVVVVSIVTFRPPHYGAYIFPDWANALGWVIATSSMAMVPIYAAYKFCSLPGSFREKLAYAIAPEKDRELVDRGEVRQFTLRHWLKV
Source text: Values represent means±SEM (of n experiments).

[7] = tested on: dopamine and serotonin reuptake sites; conditions: within 60-120 min
Procedure: Six SPECT experiments were performed in four female baboons (10 kg Papio anubis) under isoflurane anesthesia. […] Data were decay-corrected to the time of injection.

[8] = at time of peak striatal uptake, n=6
[9] = 0.4 μmol/kg i.v. at 180 min p.i.

T1 sequence (Q63380 1-617): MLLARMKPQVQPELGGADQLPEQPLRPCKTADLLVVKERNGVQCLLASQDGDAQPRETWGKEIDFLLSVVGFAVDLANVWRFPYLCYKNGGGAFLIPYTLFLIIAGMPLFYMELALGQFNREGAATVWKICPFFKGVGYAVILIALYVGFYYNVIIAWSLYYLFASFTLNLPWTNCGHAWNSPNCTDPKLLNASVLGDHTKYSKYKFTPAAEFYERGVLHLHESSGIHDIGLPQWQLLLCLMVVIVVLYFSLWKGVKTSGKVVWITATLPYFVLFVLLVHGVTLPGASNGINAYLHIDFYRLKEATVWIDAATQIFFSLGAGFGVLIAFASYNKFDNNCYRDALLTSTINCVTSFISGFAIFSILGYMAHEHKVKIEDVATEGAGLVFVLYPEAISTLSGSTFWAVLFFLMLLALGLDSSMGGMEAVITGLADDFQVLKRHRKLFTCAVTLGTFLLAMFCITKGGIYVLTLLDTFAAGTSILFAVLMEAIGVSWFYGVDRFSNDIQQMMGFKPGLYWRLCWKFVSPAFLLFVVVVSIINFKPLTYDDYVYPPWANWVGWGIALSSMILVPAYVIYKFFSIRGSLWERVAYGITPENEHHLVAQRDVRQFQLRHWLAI

Compound: COC(=O)[C@H]1[C@@H](c2ccc(I)cc2)C[C@@H]2CC[C@H]1N2CCCN1C(=O)c2ccccc2C1=O [Example 10, N-phthalimidopropyl-β-CIT]
- Ki ([1]; [3H]nisoxetine 0.8 nM, rat cerebral cortex, 180 min 4° C., read-out: affinity (Ki) NET): 73.7 ± 11.6 nM
- Ki (5-HTT (5-HT transporter); [3H]paroxetine 0.2 nM, rat cerebral cortex, 60 min 20° C., read-out: affinity (Ki) 5-HTT): 0.59 ± 0.07 nM
- Ki ([2]; [3H]GBR-12935 0.4 nM, rat corpus striatum, 45 min 4° C., read-out: affinity (Ki) DAT): 9.1 ± 1.1 nM
- selectivity: DAT vs 5-HTT [2]: 0.065
- selectivity: DAT vs NET [2]: 8.10

Compound: CNC1CC(c2ccc(Cl)c(Cl)c2)c2ccccc21 (stereo not drawn) [Lu 19-005, indatraline]
- decrease of striatal [123I]-β-CIT activity [3]: 65%

Compound: COC(=O)C1C(c2ccc([123I])cc2)CC2CCC1N2C (stereo not drawn) [[^123I]-β-CIT, [^123I]-2-β-Carbomethoxy-3-β-(4-iodophenyl)tropane]
- thyroid uptake [4]: low
- ratio of regional brain activity, cerebellum (striatum 100%) [5, 8]: 10.0±1.5%
- ratio of regional brain activity, frontal lobe (striatum 100%) [5, 8]: 10.3±1.0%
- ratio of regional brain activity, hypothalamus (striatum 100%) [5, 8]: 38.1±5.2%
- ratio of regional brain activity, occipital lobe (striatum 100%) [5, 8]: 13.5±0.8%
- ratio of regional brain activity, temporo-parietal lobes (striatum 100%) [5, 8]: 14.3±2.0%
- washout of midbrain activity t½ ([5]; midbrain, n=3): 4.9 ± 0.983 h
- time of peak midbrain activity post injection ([5]; midbrain, n=6): 45 ± 16 min
- striatal activity after peak ([5]; one animal, remaining 190 min of the experiment): virtually unchanged
- washout of striatal activity t½ ([5]; second animal, exponential fit, r=0.92): 27 h
- time of peak striatal activity post injection ([5]; striatum, n=6, mean ± S.E.M.): 179 ± 9 min
- striatal to cerebellar ratio ([6]; at time of striatal peak): 9.8±1.6
- decrease of striatal activity from striatal peak to end of experiment ([6]; control animal followed an additional 200 min): 0%
- decrease of striatal activity from striatal peak to end of experiment ([6]; control animal followed an additional 260 min): 12%
- time of peak midbrain levels pi ([6]; midbrain, n=5): 43 ± 5 min
- time of peak striatal uptake postinjection ([6]; striatal region, mean ± SEM): 154 ± 19 min

Compound: COC(=O)[C@H]1[C@@H](c2ccc(F)cc2)C[C@@H]2CC[C@H]1N2C [compound 2, 2β-carbomethoxy-3β-(4-fluorophenyl)tropane, reference compound]
- IC50 (serotonin reuptake sites): 479 ± 59 nM
- displacement of [3H]paroxetine Hill slope (nH) (serotonin reuptake sites; rat cortical membranes): 1.34 ± 0.22 (3)
- displacement of [3H]CFT Hill slope (nH) (dopamine reuptake sites): 0.75 ± 0.01 (3)
- Ki [1]: 635 ± 110 nM
- displacement of midbrain [123I]-β-CIT levels [7, 9]: 72%
- displacement of striatal [123I]-β-CIT levels [7, 9]: 57%
- cumulative displacement of midbrain [123I]-β-CIT levels ([7]; 2.0 μmol/kg at 298 min p.i.): 91%
- cumulative displacement of striatal [123I]-β-CIT levels ([7]; 2.0 μmol/kg at 298 min p.i.): 83%
- Ki (5-HTT (5-HT transporter)): 181 ± 21 nM

Compound: COC(=O)[C@H]1[C@@H](c2ccc(I)cc2)C[C@@H]2CC[C@H]1N2C [compound 3a, 2β-carbomethoxy-3β-(4-iodophenyl)tropane]
- IC50 (serotonin reuptake sites): 3.78 ± 0.53 nM
- displacement of [3H]paroxetine Hill slope (nH) (serotonin reuptake sites; rat cortical membranes): 0.82 ± 0.08 (6)
- displacement of [3H]CFT Hill slope (nH) (dopamine reuptake sites): 0.79 ± 0.04 (3)
- Ki [1]: 2.8 ± 0.4 nM
- Ki (5-HTT (5-HT transporter)): 0.46 ± 0.06 nM
- Ki [2]: 1.4 ± 0.2 nM
- selectivity: DAT vs 5-HTT [2]: 0.320
- selectivity: DAT vs NET [2]: 2.00

Compound: COC(=O)C1C(c2ccc(I)cc2)CC2CCC1N2C (stereo not drawn) [compound 3b, 2-α-Carbomethoxy-3-β-iodophenyltropane]
- displacement of [3H]paroxetine Hill slope (nH) (serotonin reuptake sites; rat cortical membranes): 0.73 ± 0.04 (2)
- IC50 (serotonin reuptake sites; rat cortical membranes, mean ± SEM, read-out: displacement of [3H]paroxetine IC50): 210 ± 86 nM
- displacement of [3H]CFT Hill slope (nH) (dopamine reuptake sites): 0.70 ± 0.07 (2)

Source: patent publication US6537522B1, “Neuroprobes for mapping monoamine reuptake sites” (Amersham PLC, priority 1992, dated 2003)
